We go through 1 compound from patent US20060020042A1, “Memantine for the treatment of mild and mild to moderate Alzheimer's disease” (Forest Laboratories, Inc., priority 2004, published 2006).

Data set [1] relates to outpatients with mild-to-moderate Alzheimer's disease. As to the kind of experiment: ADAS-cog in randomized, double-blind, placebo-controlled study. Type of data set: in vivo, human. The settings on record: for ADAS-cog Non-Responder, number of patients / ADAS-cog Responder (change from baseline <= -4), number of patients / ADAS-cog Difference (memantine minus placebo, LS mean): Week 24, ITT; for ADAS-cog Difference (memantine minus placebo, LS mean): 20 mg/day. The text has this:
The present invention is based on results from a randomized, double-blind, placebo-controlled, multi-center, parallel-group study comparing memantine to placebo in outpatients diagnosed with probable AD according to […] criteria. Severity of mild to moderate was established using the Mini-Mental State Examination (MMSE) score (≧10 and ≦22; 0 is the lowest score and 30 is the highest score). In the study of the present invention, there were approximately 400 patients enrolled across 42 centers. Evaluation of primary efficacy was achieved by Alzheimer's Disease Assessment Scale-cognitive subscale (ADAS-cog) and the Clinician's Interview-Based Impression of Change including caregiver information (CIBIC-plus). Secondary efficacy was determined using Alzheimer's disease Cooperative Study-Activities of Daily Living (ADCS-ADL) and Neuropsychiatric Inventory (NPI) criteria. The ADAS-cog comprises an 11-item scale that is used to assess the severity of selected areas of cognitive impairment (memory, language, orientation, reason and praxis). Scores range from 0 to 70 with lower scores indicating lesser severity and a score of 70 representing the worst cognitive impairment. Its use in assessing and following changes in patients with mild to moderate Alzheimer's disease has been extensively validated. The ADAS-cog was administered at each clinic visit starting with the Baseline visit and at the end of weeks 4, 8, 12, 18 and 24 (or upon early termination). The study consisted of 1-2 weeks of single-blind placebo treatment followed by 24 weeks of double-blind treatment. Results were evaluated over seven clinical visits; at initial screening, baseline, and the end of weeks 4, 8, 12, 18 and 24. The population of patients who received at least one dose of double-blind memantine, and completed at least one post-baseline efficacy evaluation of either the ADAS-cog or the CIBIC-plus is designated the “intent-to-treat” (ITT) population. The population of randomized patients who received at least one dose of double-blind study medication is designated the “safety population”. The randomized population designates all patients randomized into the study. This study was conducted as a fixed-dose study. All patients assigned to the memantine group received an initial dose of 5 mg per day; the dose was titrated in 5 mg weekly increments to a final dose of 20 mg/day (administered as two 5 mg tablets twice a day). Study drug was provided as blister packs containing masked study medication such that placebo and memantine tablets were visually identical, and all patients received four tablets of study medication daily (in combinations of memantine 5 mg tablets and matching placebo tablets). Transient dose adjustments were permitted between weeks 3 and 8 for patients experiencing dose-limiting adverse events. However, all patients were required to receive the target dose of 20 mg/day by the end of week 8. Patients not able to tolerate the target dose by week 8 were discontinued from the study. Statistical analysis. For primary efficacy measurements, (e.g., change from Baseline (visit 2) to Week 24 in the total ADAS-cog scores from the ITT population) the comparison between memantine and placebo were performed using two-way analysis of covariance (ANCOVA) with treatment group and center as the two factors, and the baseline scores as covariate. Both the Last Observation Carried Forward (LOCF) imputation approach and the Observed Cases (OC) approach were performed at week 24. Results of ANCOVA were summarized using least square (LS) means for each treatment group with corresponding standard error (SE), the between-treatment (2-24 week) difference in the least square means with corresponding 95% confidence interval, and the between-treatment p-value corresponds to the SAS Type III sum of squares.

The conditions of data set [2]: cited from earlier work.

As for `CC12CC3CC(C)(C1)CC(N)(C3)C2` [Memantine, 1-amino-3,5-dimethyladamantane], the “ADAS-cog Non-Responder, number of patients” value in data set [1] (LOCF analysis) is on record as 158/148; in data set [1] (OC analysis), 129/126. The “ADAS-cog Responder (change from baseline <= -4), number of patients” value in data set [1] (LOCF analysis) is listed as 40/47; in data set [1] (OC analysis) it was 33/34. Also, the “ADAS-cog Difference (memantine minus placebo, LS mean)” value in data set [1] (LOCF analysis, p=0.003) is −1.9; in data set [1] (OC analysis, p=0.130), −1.1. The “ADAS-cog LS mean change” value was −1.2 in data set [1] (week 8, LOCF, placebo 0.2, p 0.003); −1.1 in data set [1] (week 8, OC, placebo 0.2, p=0.006); −1.4 in data set [1] (week 12, LOCF, placebo -0.1, p=0.009). For the same compound, the “solubility in aqueous media” value in data set [2] is on record as “highly soluble”.
